Assay results taken from patent US20220347196A1, “COMPOSITIONS AND METHODS FOR IMPROVING GASTROINTESTINAL FUNCTION IN SUBJECTS WITH RENAL DISEASE” (priority 2021, published 2022).

Tests used:
[1] = system: Patients With ESRD On Hemodialysis With Constipation; experiment: Nutrition, hemoglobin and inflammatory biomarkers measured each month during 12 week HMO treatment; format: in vivo, human
Method: Five subjects with ESRD on hemodialysis with constipation were treated with 2′-FL (3.3 grams/day) for 12 weeks. Meanwhile, nutrition, hemoglobin, and inflammatory biomarkers were measured in each of the these patients at each month during the treatment.

[2] = system: subjects with ESRD on hemodialysis with constipation; experiment: Bowel movement consistency and regularity after 12 week 2′-FL treatment; format: in vivo, human; details: five subjects, 3.3 grams/day for 12 weeks
Method: Five subjects with ESRD on hemodialysis with constipation were treated with 2′-FL (3.3 grams/day) for 12 weeks.

[3] = Patient 1, month of treatment 0 (baseline), 3.3 grams/day
[4] = Patient 1, month of treatment 1, 3.3 grams/day
[5] = Patient 1, month of treatment 2, 3.3 grams/day
[6] = Patient 1, month of treatment 3, 3.3 grams/day
[7] = Patient 2, month of treatment 0 (baseline), 3.3 grams/day
[8] = Patient 2, month of treatment 1, 3.3 grams/day
[9] = Patient 2, month of treatment 2, 3.3 grams/day
[10] = Patient 2, month of treatment 3, 3.3 grams/day
[11] = Patient 3, month of treatment 0 (baseline), 3.3 grams/day
[12] = Patient 3, month of treatment 1, 3.3 grams/day
[13] = Patient 3, month of treatment 2, 3.3 grams/day
[14] = Patient 3, month of treatment 3, 3.3 grams/day
[15] = Patient 4, month of tx 0 (baseline), 3.3 grams/day
[16] = Patient 4, month of tx 1, 3.3 grams/day
[17] = Patient 4, month of tx 2, 3.3 grams/day
[18] = Patient 4, month of tx 3, 3.3 grams/day
[19] = Patient 5, month of treatment 0 (baseline), 3.3 grams/day
[20] = Patient 5, month of treatment 1, 3.3 grams/day
[21] = Patient 5, month of treatment 2, 3.3 grams/day
[22] = Patient 5, month of treatment 3, 3.3 grams/day
[23] = five subjects, 3.3 grams/day for 12 weeks

Q: How did the Albumin [1, 3] turn out when 2′-fucosyllactose [2′-FL] was run?
A: The Albumin was 3.6 g/dL.

Q: And the Ferritin [1, 3]?
A: Its Ferritin is 548 ng/mL.

Q: What about the Hg [1, 3] of the same substance?
A: The Hg was 10.6 g/dL.

Q: And the Albumin [1, 4]?
A: Its Albumin is 3.7 g/dL.

Q: And the CRP [1, 4]?
A: Its CRP is 0.7 mg/L.

Q: And the Ferritin [1, 4]?
A: Its Ferritin is 546 ng/mL.

Q: What about the Hg [1, 4] of the same substance?
A: Its Hg is 10.5 g/dL.

Q: And the Albumin [1, 5]?
A: Its Albumin is 3.8 g/dL.

Q: And the CRP [1, 5]?
A: The CRP was 0.5 mg/L.

Q: And the Ferritin [1, 5]?
A: The Ferritin was 503 ng/mL.

Q: And the Hg [1, 5]?
A: The Hg was 11.2 g/dL.

Q: And the Albumin [1, 6]?
A: The Albumin was 3.5 g/dL.

Q: What about the CRP [1, 6] of the same substance?
A: The CRP was 0.3 mg/L.

Q: What about the Ferritin [1, 6] of the same substance?
A: The Ferritin was 364 ng/mL.

Q: And the Hg [1, 6]?
A: Its Hg is 10.7 g/dL.

Q: What about the Albumin [1, 7] of the same substance?
A: The Albumin was 4.2 g/dL.

Q: What about the Ferritin [1, 7] of the same substance?
A: The Ferritin was 1250 ng/mL.

Q: And the Hg [1, 7]?
A: Its Hg is 11.2 g/dL.

Q: And the Albumin [1, 8]?
A: The Albumin was 4.3 g/dL.

Q: And the CRP [1, 8]?
A: The CRP was 6.2 mg/L.

Q: What about the Ferritin [1, 8] of the same substance?
A: The Ferritin was 1188 ng/mL.

Q: And the Hg [1, 8]?
A: Its Hg is 11.3 g/dL.

Q: What about the Albumin [1, 9] of the same substance?
A: The Albumin was 4.2 g/dL.

Q: And the CRP [1, 9]?
A: The CRP was 4.3 mg/L.

Q: What about the Ferritin [1, 9] of the same substance?
A: Its Ferritin is 1000 ng/mL.

Q: What about the Hg [1, 9] of the same substance?
A: Its Hg is 10.6 g/dL.

Q: And the Albumin [1, 10]?
A: The Albumin was 4.2 g/dL.

Q: And the CRP [1, 10]?
A: Its CRP is 2.3 mg/L.

Q: And the Ferritin [1, 10]?
A: Its Ferritin is 899 ng/mL.

Q: What about the Hg [1, 10] of the same substance?
A: The Hg was 10.2 g/dL.

Q: What about the Albumin [1, 11] of the same substance?
A: The Albumin was 3.9 g/dL.

Q: And the Ferritin [1, 11]?
A: The Ferritin was 1243 ng/mL.

Q: And the Hg [1, 11]?
A: Its Hg is 10.5 g/dL.

Q: And the Albumin [1, 12]?
A: The Albumin was 4 g/dL.

Q: What about the CRP [1, 12] of the same substance?
A: Its CRP is 19 mg/L.

Q: And the Ferritin [1, 12]?
A: The Ferritin was 1135 ng/mL.

Q: What about the Hg [1, 12] of the same substance?
A: Its Hg is 11.3 g/dL.

Q: What about the Albumin [1, 13] of the same substance?
A: The Albumin was 3.9 g/dL.

Q: What about the CRP [1, 13] of the same substance?
A: The CRP was 1.9 mg/L.

Q: What about the Ferritin [1, 13] of the same substance?
A: The Ferritin was 827 ng/mL.

Q: And the Hg [1, 13]?
A: The Hg was 10.9 g/dL.

Q: And the Albumin [1, 14]?
A: Its Albumin is 4 g/dL.

Q: And the CRP [1, 14]?
A: The CRP was 1.6 mg/L.

Q: What about the Ferritin [1, 14] of the same substance?
A: Its Ferritin is 907 ng/mL.

Q: What about the Hg [1, 14] of the same substance?
A: The Hg was 11.2 g/dL.

Q: What about the Albumin [1, 15] of the same substance?
A: Its Albumin is 3.9 g/dL.

Q: And the Ferritin [1, 15]?
A: The Ferritin was 1487 ng/mL.

Q: And the Hg [1, 15]?
A: The Hg was 10.8 g/dL.

Q: What about the Albumin [1, 16] of the same substance?
A: Its Albumin is 3.9 g/dL.

Q: And the CRP [1, 16]?
A: The CRP was 2 mg/L.

Q: And the Ferritin [1, 16]?
A: Its Ferritin is 1208 ng/mL.

Q: And the Hg [1, 16]?
A: Its Hg is 10.5 g/dL.

Q: And the Albumin [1, 17]?
A: Its Albumin is 3.9 g/dL.

Q: What about the CRP [1, 17] of the same substance?
A: The CRP was 1.5 mg/L.

Q: And the Ferritin [1, 17]?
A: Its Ferritin is 749 ng/mL.

Q: And the Hg [1, 17]?
A: The Hg was 11.3 g/dL.

Q: What about the Albumin [1, 18] of the same substance?
A: The Albumin was 3.8 g/dL.

Q: What about the CRP [1, 18] of the same substance?
A: The CRP was 1.5 mg/L.

Q: What about the Ferritin [1, 18] of the same substance?
A: Its Ferritin is 985 ng/mL.

Q: And the Hg [1, 18]?
A: The Hg was 11.4 g/dL.

Q: And the Albumin [1, 19]?
A: Its Albumin is 4.1 g/dL.

Q: What about the Ferritin [1, 19] of the same substance?
A: Its Ferritin is 580 ng/mL.

Q: And the Hg [1, 19]?
A: Its Hg is 12.2 g/dL.

Q: And the Albumin [1, 20]?
A: The Albumin was 4.1 g/dL.

Q: What about the CRP [1, 20] of the same substance?
A: Its CRP is 27.5 mg/L.

Q: And the Ferritin [1, 20]?
A: The Ferritin was 431 ng/mL.

Q: What about the Hg [1, 20] of the same substance?
A: The Hg was 12.6 g/dL.

Q: What about the Albumin [1, 21] of the same substance?
A: The Albumin was 3.9 g/dL.

Q: And the CRP [1, 21]?
A: Its CRP is 28 mg/L.

Q: And the Ferritin [1, 21]?
A: Its Ferritin is 313 ng/mL.

Q: What about the Hg [1, 21] of the same substance?
A: Its Hg is 12.2 g/dL.

Q: What about the Albumin [1, 22] of the same substance?
A: The Albumin was 3.8 g/dL.

Q: What about the CRP [1, 22] of the same substance?
A: The CRP was 12.4 mg/L.

Q: And the Ferritin [1, 22]?
A: The Ferritin was 332 ng/mL.

Q: What about the Hg [1, 22] of the same substance?
A: The Hg was 12 g/dL.

Q: What about the “anemia (hemoglobin), average” value [1, 23] of the same substance?
A: Its value is “improvement or stabilization”.

Q: What about the “nutrition (albumin), average” value [1, 23] of the same substance?
A: Its value is “improvement or stabilization”.

Q: And the “serum inflammatory marker CRP (C-reactive protein), average” value [1, 23]?
A: Its value is “significant and persistent reduction”.

Q: And the “serum inflammatory marker ferritin, average” value [1, 23]?
A: Its value is “significant and persistent reduction”.

Q: What about the bowel movement consistency [2] of the same substance?
A: The bowel movement consistency was “from hard stool to soft”.

Q: And the “bowel movement regularity (on average)” value [2]?
A: Its value is “from one bowel movement every other day to one bowel movement every day”.
